From patent US8648076B2, “Cysteine protease inhibitors and their therapeutic applications” (Hybrigenics SA, priority 2005, dated 2014) come the findings set out here.

Read-outs that look alike come from different tables or passages of the source. Where only a bound is given, the exact number is not on record here.

For one assay, the target named is T1, USP8 (Homo sapiens, UniProt P40818).
T1 sequence (P40818 1-1118): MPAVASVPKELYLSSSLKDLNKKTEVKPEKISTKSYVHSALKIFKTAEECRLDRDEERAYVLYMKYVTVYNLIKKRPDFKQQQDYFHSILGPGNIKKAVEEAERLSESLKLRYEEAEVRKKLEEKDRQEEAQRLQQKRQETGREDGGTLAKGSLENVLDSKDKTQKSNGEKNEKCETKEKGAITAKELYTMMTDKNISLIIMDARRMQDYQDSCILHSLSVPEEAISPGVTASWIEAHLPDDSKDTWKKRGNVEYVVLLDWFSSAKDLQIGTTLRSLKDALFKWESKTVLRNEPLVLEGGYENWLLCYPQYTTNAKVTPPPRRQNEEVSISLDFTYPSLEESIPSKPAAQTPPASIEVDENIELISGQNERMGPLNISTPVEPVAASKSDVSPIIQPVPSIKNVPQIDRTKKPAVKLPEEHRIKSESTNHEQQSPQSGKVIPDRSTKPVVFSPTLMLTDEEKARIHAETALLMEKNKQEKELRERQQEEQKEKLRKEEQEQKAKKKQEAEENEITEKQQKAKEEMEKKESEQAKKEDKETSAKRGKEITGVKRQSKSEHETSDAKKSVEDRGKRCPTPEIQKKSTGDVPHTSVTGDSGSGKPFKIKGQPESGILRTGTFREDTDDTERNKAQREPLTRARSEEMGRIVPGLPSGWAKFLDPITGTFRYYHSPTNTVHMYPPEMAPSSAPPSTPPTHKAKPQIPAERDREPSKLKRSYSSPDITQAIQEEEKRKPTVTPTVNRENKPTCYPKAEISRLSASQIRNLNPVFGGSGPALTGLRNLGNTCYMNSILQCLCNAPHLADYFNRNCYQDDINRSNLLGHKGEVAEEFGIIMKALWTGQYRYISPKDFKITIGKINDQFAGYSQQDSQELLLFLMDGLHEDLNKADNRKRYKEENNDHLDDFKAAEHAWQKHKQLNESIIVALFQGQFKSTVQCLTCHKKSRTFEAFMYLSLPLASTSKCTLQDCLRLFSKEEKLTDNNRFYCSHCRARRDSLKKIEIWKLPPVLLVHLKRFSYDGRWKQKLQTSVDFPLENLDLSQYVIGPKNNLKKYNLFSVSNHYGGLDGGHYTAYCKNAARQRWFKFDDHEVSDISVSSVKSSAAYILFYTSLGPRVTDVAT
The experiment in a line: USP8 activity assay. The settings on record: 400 nM Ub-AMC, pH8.8, 30 min pre-incubation at 25° C., 60 min at 37° C.; sigmoidal fit; AF: Autofluorescent; read-out: USP 8 (inhibition of cysteine protease activity). It counts as biochemical.

For the next assay, the target named is T2, Uch-L3 (Homo sapiens, UniProt P15374).
T2 sequence (P15374 1-230): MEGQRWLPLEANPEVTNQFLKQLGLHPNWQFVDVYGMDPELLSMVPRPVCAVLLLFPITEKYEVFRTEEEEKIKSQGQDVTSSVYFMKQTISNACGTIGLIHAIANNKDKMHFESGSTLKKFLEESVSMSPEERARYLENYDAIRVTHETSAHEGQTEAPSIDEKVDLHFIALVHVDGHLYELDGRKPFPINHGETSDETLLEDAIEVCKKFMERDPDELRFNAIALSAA
The experiment in a line: UCH-L3 activity assay. It counts as biochemical. The settings on record: 400 nM Ub-AMC, 13 pM enzyme, 30 min pre-incubation at 25° C., 60 min at 37° C.; sigmoidal fit; AF: Autofluorescent; read-out: Uch-L3 (inhibition of cysteine protease activity). The procedure: (§1) Bovine Serum Albumin 0.05 mg·ml^−1 pH7.6). Compounds stocks (100 mM) were stored at −20° C. in DMSO. […] Reactions were performed as duplicates in Black LJL 96 well plates (HE microplates; Molecular Devices; 20 μl final reaction volume). The substrate concentration for Uch-L3 was 400 nM Ub-AMC (Boston Biochem). The concentration of the enzyme (Uch-L3) in specificity assays was 13 pM. The concentrations were determined in order to perform specificity assays under initial velocities at fixed substrate concentration. Compounds were pre-incubated with enzymes for 30 minutes at 25° C. Reactions were initiated by addition of substrate to the plates containing the enzymes (+/−compounds) diluted in assay buffer. Reactions were incubated for 60 minutes at 37° C. Reactions were stopped by adding acetic acid (100 mM final). Readings were performed on a Pherastar Fluorescent Reader (BMG). δ Emission 380 nm; δ Excitation=460 nm. Data (mean values+/− standard deviation) were analyzed as % of control (no compound) and plotted as percentage versus the Log of the compound concentration using GraphPad (Prism). Data were fitted to a sigmoidal model (variable slope).

For the next assay, the target named is T3, Caspase 3 (Homo sapiens, UniProt P42574).
T3 sequence (P42574 29-175 limits assumed): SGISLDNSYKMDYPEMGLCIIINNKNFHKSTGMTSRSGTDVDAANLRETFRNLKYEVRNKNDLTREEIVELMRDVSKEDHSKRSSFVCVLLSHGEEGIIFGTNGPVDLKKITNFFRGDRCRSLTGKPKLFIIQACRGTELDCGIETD
T3 sequence (P42574 176-277 limits assumed): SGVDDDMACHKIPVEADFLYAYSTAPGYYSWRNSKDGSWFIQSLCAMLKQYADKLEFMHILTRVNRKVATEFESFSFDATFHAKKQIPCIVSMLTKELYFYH
The experiment in a line: Caspase 3 activity assay. It counts as biochemical. The procedure:
as §1, with “Compounds” for “Bovine Serum Albumin 0.05 mg·ml^−1 pH7.6). Compounds”, “caspase 3 specificity assay” for “Uch-L3”, “500” for “400”, “(Ac-DEVD-AMC; Promega). […]” for “Ub-AMC (Boston Biochem). The concentration of the enzyme (Uch-L3) in specificity assays was 13 pM.”

In assay [1] the test system is HCT116 colon cancer cells. The experiment in a line: HCT116 cell viability and proliferation assay (MTS). It counts as cell-based. The settings on record: Homo sapiens, read-out: HCT116 D3 GI50.
Assay [2] relates to PC-3 prostate cancer cells. Nature of the assay: PC3 cell viability and proliferation assay (MTS). The settings on record: Homo sapiens, PC-3, 72 h, read-out: PC3 D3 GI50. It counts as cell-based.
[3] abbreviates: 500 nM Ac-DEVD-AMC, 3.2 nM enzyme, 30 min pre-incubation at 25° C., 60 min at 37° C., sigmoidal fit, AF: Autofluorescent, read-out: Casp3 (inhibition of cysteine protease activity).
Where [4] appears, read: HCT-116, HCT116 cells, 72 hours incubation, MTS, mean of 3 independent experiments.
The mark [5] stands for this setting: PC3 cells, 72 hours incubation, MTS, mean of 3 independent experiments.

For `N#Cc1nc2c(nc1C#N)-c1ccccc1C2=NOCc1ccccc1` (mixture of isomers) [Example 13C, 9-Benzyloxyimino-9H-indeno[1,2-b]pyrazine-2,3-dicarbonitrile], the IC50 was 850 nM on USP8, greater than 100000 nM at Uch-L3 and greater than 100000 nM on Caspase 3 (setting [3]). The GI50 in assay [1] (setting [4]) turned out to be 750 nM; in assay [2] (setting [5]), 700 nM.
As to `C=CCON=C1c2ccccc2-c2nc(C#N)c(C#N)nc21` (mixture of isomers) [Example 13b, 9-(Allyloxyimino)-9H-indeno[1,2-b]pyrazine-2,3-dicarbonitrile], the IC50 was 560 nM at USP8, 10000 nM at Uch-L3 and greater than 100000 nM on Caspase 3 (setting [3]). In addition, the GI50 in assay [1] (HCT-116, 72 h) turned out to be 580 nM; in assay [2] it was 540 nM.
On to `CCON=C1c2ccccc2-c2nc(C#N)c(C#N)nc21` (mixture of isomers) [Example 13d, 9-Ethoxyimino-9H-indeno[1,2-b]pyrazine-2,3-dicarbonitrile], for which the figures for the IC50 at Uch-L3 and at Caspase 3 (setting [3]) were 1300 nM and greater than 100000 nM, respectively. The GI50 in assay [1] (setting [4]) was 1180 nM; in assay [2] (setting [5]), 1540 nM.
On to `N#Cc1nc2c(nc1C#N)-c1ccccc1C2=Nc1ccccc1` (mixture of isomers) [Example 14, 9-[phenylimino]-9H-indeno[1,2-b]pyrazine-2,3-dicarbonitrile], for which the figures for the IC50 at USP8, at Uch-L3 and at Caspase 3 (setting [3]) were 350 nM, 390 nM and 1300 nM, respectively. The GI50 in assay [1] (setting [4]) came out at 430 nM; in assay [2] (setting [5]), 510 nM.
Consider `CC(=O)O/N=C1\c2ccccc2-c2nc(C(N)=O)c(C#N)nc21` (single isomer, unassigned) [Example 35, 2-cyano-9-acetoxyimino-9H-indeno[1,2-b]pyrazine-3-carboxylic acid amide], for which the values for the IC50 at USP8, at Uch-L3 and at Caspase 3 (setting [3]) were 27 nM, 48 nM and 120 nM, respectively. The GI50 stood at 1350 nM in assay [1] (HCT-116, 72 h) and 1280 nM in assay [2].
As for `N#Cc1nc2c(nc1C#N)-c1ccccc1C2=O` [Example 1, 9-oxo-9H-indeno[1,2-b]pyrazine-2,3-dicarbonitrile], the figures for the IC50 at USP8, at Uch-L3 and on Caspase 3 (setting [3]) were 290 nM, 760 nM and 690 nM, respectively. The GI50 in assay [1] (setting [4]) was 150 nM; in assay [2] (setting [5]), 610 nM.
For `COc1nc2c(nc1C#N)C(=O)c1ccccc1-2` [Example 3, 3-methoxy-9-oxo-9H-indeno[1,2-b]pyrazine-2-carbonitrile], in that order: 31000 nM, 13000 nM, greater than 100000 nM, greater than 10000 nM and greater than 10000 nM.
`CCO/C(O)=C(\C#N)c1nc2c(nc1C#N)C(=O)c1ccccc1-2` [Example 22, 3-(1-cyano-2-ethoxy-2-hydroxy-vinyl)-9-oxo-9H-indeno[1,2-b]pyrazine-2-carbonitrile]: the IC50 is 22000 nM on Uch-L3 and greater than 100000 nM on Caspase 3 (setting [3]). Moreover, the GI50 in assay [1] (setting [4]) and in assay [2] (setting [5]) was greater than 10000 nM throughout.
`N#Cc1nc2c(nc1CC(N)=O)-c1ccccc1C2=O` [Example 26, 2-(2-cyano-9-oxo-9H-indeno[1,2-b]pyrazin-3-yl)-acetamide]: the IC50 on USP8 was found to be 11000 nM; on Uch-L3 it was 1600 nM. The GI50 in assay [1] (HCT-116, 72 h) was greater than 10000 nM; in assay [2], greater than 10000 nM.
For the compound `N#Cc1nc2c(nc1C(N)=O)-c1ccccc1C2=O` [Example 36, 2-cyano-9-oxo-9H-indeno[1,2-b]pyrazine-3-carboxylic acid amide], the IC50 was found to be 205 nM on USP8, 178 nM at Uch-L3 and 402 nM on Caspase 3 (setting [3]). In addition, the GI50 in assay [1] (HCT-116, 72 h) stood at 4250 nM.
Consider `CCOC(=O)CO/N=C1\c2ccccc2-c2nc(C(N)=O)c(C#N)nc21` [Example 37, (3-carbamoyl-2-cyano-indeno[1,2-b]pyrazin-9-ylideneaminooxy)-acetic acid ethyl ester], for which the IC50 on USP8 turned out to be 200 nM; at Uch-L3, 393 nM; on Caspase 3 (setting [3]), 1160 nM. Further, the GI50 in assay [1] (setting [4]) was found to be 652 nM.
In the case of `N#Cc1nc2c(nc1C(N)=O)-c1ccccc1/C2=N\OCC(=O)O` [Example 38, (3-carbamoyl-2-cyano-indeno[1,2-b]pyrazin-9-ylideneaminooxy)-acetic acid], the IC50 at USP8 is 272 nM; at Uch-L3, 758 nM; against Caspase 3, 3940 nM. In addition, the GI50 in assay [1] (HCT-116, 72 h) is greater than 10000 nM.
As to `CCOC(=O)CNC(=O)CO/N=C1\c2ccccc2-c2nc(C(N)=O)c(C#N)nc21` [Example 40, [2-(3-carbamoyl-2-cyano-indeno[1,2-b]pyrazin-9-ylideneaminooxy)-acetylamino]-acetic acid ethyl ester], the IC50 on USP8 was 155 nM; at Uch-L3, 245 nM; at Caspase 3 (setting [3]), 857 nM. Also, in assay [1] (setting [4]), the GI50 is 4600 nM.
Regarding `N#Cc1nc2c(nc1C(N)=O)-c1ccccc1/C2=N\OCC(=O)NCC(=O)O` [Example 41, [2-(3-carbamoyl-2-cyano-indeno[1,2-b]pyrazin-9-ylideneaminooxy)-acetylamino]-acetic acid], the IC50 at USP8 is 118 nM; on Uch-L3, 328 nM; on Caspase 3 (setting [3]), 1980 nM. Also, the concentration for 50% growth inhibition (GI50) in assay [1] (HCT-116, 72 h) is greater than 10000 nM.

Usually GI50 stands for the concentration giving 50% growth inhibition.
